Columns and labels:
Conditions in all cases: 72 h
[1] = system: Caco-2; test: cell viability relative to DMSO; higher = less toxic
[2] = system: Calu-3; test: as above
[3] = system: HepG2; test: as above
[4] = system: U2OS; test: as above
[5] = system: Vero E6; test: as above
[6] = system: Caco-2; test: relative viability EC50 (midpoint between 100% and the lowest measured viability); higher = less toxic
[7] = system: Calu-3; test: as above
[8] = system: HepG2; test: as above
[9] = system: U2OS; test: as above
[10] = system: Vero E6; test: as above
[11] = system: Caco-2; test: drug sensitivity score (DSS) for viability; higher = more toxic; extreme values may be limits of the assay
[12] = system: Calu-3; test: as above
[13] = system: HepG2; test: as above
[14] = system: U2OS; test: as above
[15] = system: Vero E6; test: as above

| SMILES | cell viability ([1]; 1 nM) | cell viability ([1]; 10 nM) | cell viability ([1]; 100 nM) | cell viability ([1]; 1000 nM) | cell viability ([1]; 10000 nM) | cell viability ([2]; 1 nM) | cell viability ([2]; 10 nM) | cell viability ([2]; 100 nM) | cell viability ([2]; 1000 nM) | cell viability ([2]; 10000 nM) | cell viability ([3]; 1 nM) | cell viability ([3]; 10 nM) | cell viability ([3]; 100 nM) | cell viability ([3]; 1000 nM) | cell viability ([3]; 10000 nM) | cell viability ([4]; 1 nM) | cell viability ([4]; 10 nM) | cell viability ([4]; 100 nM) | cell viability ([4]; 1000 nM) | cell viability ([4]; 10000 nM) | cell viability ([5]; 1 nM) | cell viability ([5]; 10 nM) | cell viability ([5]; 100 nM) | cell viability ([5]; 1000 nM) | cell viability ([5]; 10000 nM) | relative viability EC50 [6] | relative viability EC50 [7] | relative viability EC50 [8] | relative viability EC50 [9] | relative viability EC50 [10] | drug sensitivity score [11] | drug sensitivity score [12] | drug sensitivity score [13] | drug sensitivity score [14] | drug sensitivity score [15] |
| --- | --- | --- | --- | --- | --- | --- | --- | --- | --- | --- | --- | --- | --- | --- | --- | --- | --- | --- | --- | --- | --- | --- | --- | --- | --- | --- | --- | --- | --- | --- | --- | --- | --- | --- | --- |
| O=C(Nc1ccccc1)c1cc([N+](=O)[O-])ccc1Cl [GW-9662] | 98% | 94.1% | 103% | 90.1% | 93.3% | 93.7% | 93.6% | 101% | 100% | 96.7% | 94.9% | 100% | 90% | 102% | 88.3% | 106% | 91.7% | 101% | 91.6% | 96.8% | 103% | 106% | 98.2% | 99.9% | 97.7% | > 10 µM | > 10 µM | > 10 µM | > 10 µM | > 10 µM | 0 | 0 | 0 | 0 | 0 |
| Oc1ccc2ccccc2c1SSc1c(O)ccc2ccccc12 [IPA-3] | 98.9% | 94.9% | 91% | 95.7% | 92.9% | 96.3% | 109% | 99.8% | 107% | 111% | 104% | 109% | 89.2% | 106% | 103% | 93.2% | 96.6% | 97.6% | 98.3% | 92.9% | 99.7% | 101% | 102% | 102% | 95.8% | > 10 µM | > 10 µM | > 10 µM | > 10 µM | > 10 µM | 0 | 0 | 0 | 0 | 0 |
| CN([C@@H](Cc1ccc(OS(=O)(=O)c2cccc3cnccc23)cc1)C(=O)N1CCN(c2ccccc2)CC1)S(=O)(=O)c1cccc2cnccc12 [KN-62] | 93.4% | 119% | 112% | 89.6% | 101% | 105% | 95.8% | 98% | 93.9% | 91.1% | 123% | 110% | 105% | 101% | 95.7% | 101% | 100% | 99.9% | 95.4% | 92.3% | 104% | 96.6% | 98.9% | 96.3% | 94.8% | > 10 µM | > 10 µM | > 10 µM | > 10 µM | > 10 µM | 0 | 0 | 0 | 0 | 0 |
| NC(=O)CC[C@H](N)C(=O)O [L-glutamine] | 93.2% | 90.8% | 100% | 96.1% | 101% | 91.5% | 91.7% | 96.9% | 95% | 91.2% | 92.6% | 102% | 104% | 91.6% | 100% | 102% | 102% | 94.4% | 99.1% | 93% | 100% | 100% | 95% | 93% | 92.7% | > 10 µM | > 10 µM | > 10 µM | > 10 µM | > 10 µM | 0 | 0 | 0 | 0 | 0 |
| Cc1cccc(C)c1OCC(=O)N[C@@H](Cc1ccccc1)[C@@H](O)C[C@H](Cc1ccccc1)NC(=O)[C@H](C(C)C)N1CCCNC1=O [Lopinavir] | 95% | 101% | 100% | 101% | 83.7% | 95.4% | 84.9% | 92.7% | 93.9% | 89.2% | 101% | 87.1% | 103% | 105% | 95.4% | 99.5% | 95.2% | 103% | 94.1% | 96.5% | 93.3% | 100% | 100% | 100% | 104% | > 10 µM | > 10 µM | > 10 µM | > 10 µM | > 10 µM | 0.3 | 0 | 0 | 0 | 0 |
| O=C(O)CC[C@H]1CC[C@@](c2cc(F)ccc2F)(S(=O)(=O)c2ccc(Cl)cc2)CC1 [MK-0752] | 96.5% | 106% | 98.2% | 99.2% | 99.5% | 96.3% | 96.3% | 100% | 101% | 97.8% | 100% | 96.1% | 98.9% | 92.6% | 108% | 94.9% | 105% | 96% | 102% | 97.9% | 96% | 99.7% | 94.5% | 95.5% | 103% | > 10 µM | > 10 µM | > 10 µM | > 10 µM | > 10 µM | 0 | 0 | 0 | 0 | 0 |
| COc1ccc(CNCc2cccc3ccccc23)cc1 [ML133] | 92.5% | 95.6% | 98.5% | 99.9% | 88.3% | 101% | 101% | 102% | 104% | 94.6% | 97.8% | 108% | 101% | 110% | 112% | 104% | 94.9% | 100% | 98.9% | 97.5% | 91.2% | 100% | 94.1% | 99% | 101% | > 10 µM | > 10 µM | > 10 µM | > 10 µM | > 10 µM | 0 | 0 | 0 | 0 | 0 |
